# Laboratory results: patent publication US7601716B2, “Pyridopyrazines and derivatives thereof as ALK and c-Met inhibitors” (Cephalon, Inc., priority 2006, dated 2009)
# pIC50: −log10 of the molar value.
# Biological target: baculovirus-expressed ALK (Homo sapiens, UniProt Q9UM73)
# Test: ALK Kinase Assay (ELISA/TRF, PLC-γ substrate); note: 1 µM ATP (Km level)
# Type: biochemical
# Details: read-out: ALK Kinase Inhibition (IC50)
# Description: Example compounds were tested for their ability to inhibit the kinase activity of baculovirus-expressed ALK using a modification of the ELISA protocol reported for trkA in Angeles, T. S. et al., Anal. Biochem. 1996, 236, 49-55, which is incorporated herein by reference in its entirety. Phosphorylation of the substrate, phospholipase C-gamma (PLC-γ) generated as a fusion protein with glutathione S-transferase (GST) as reported in Rotin, D. et al., EMBO J. 1992, 11, 559-567, which is incorporated herein by reference in its entirety, was detected with a europium-labeled anti-phosphotyrosine antibody and measured by time-resolved fluorescence (TRF). Briefly, each 96-well plate was coated with 100 μL/well of 10 μg/mL substrate (phospholipase C-γ) in Tris-buffered saline (TBS). […] The reaction was initiated by adding enzyme (30 ng/ml ALK) and was allowed to proceed at 37° C. for 15 minutes. Detection of the phosphorylated product was performed by adding 100 μl/well of Eu-N1 labeled PT66 antibody (Perkin Elmer # AD0041). Incubation at 37° C. then proceeded for one (1) hour, followed by addition of 100 μL enhancement solution (Wallac #1244-105). The plate was gently agitated and after thirty minutes, the fluorescence of the resulting solution was measured using the EnVision 2100 (or 2102) multilabel plate reader (Perkin Elmer).
# Data analysis was performed using ActivityBase (IDBS, Guilford, UK). IC50 values were calculated by plotting percent inhibition versus log10 of the concentration of compound and fitting to the nonlinear regression sigmoidal dose-response (variable slope) equation in XLFit (IDBS, Guilford, UK).
# Sequence of baculovirus-expressed ALK (Q9UM73 19-1620): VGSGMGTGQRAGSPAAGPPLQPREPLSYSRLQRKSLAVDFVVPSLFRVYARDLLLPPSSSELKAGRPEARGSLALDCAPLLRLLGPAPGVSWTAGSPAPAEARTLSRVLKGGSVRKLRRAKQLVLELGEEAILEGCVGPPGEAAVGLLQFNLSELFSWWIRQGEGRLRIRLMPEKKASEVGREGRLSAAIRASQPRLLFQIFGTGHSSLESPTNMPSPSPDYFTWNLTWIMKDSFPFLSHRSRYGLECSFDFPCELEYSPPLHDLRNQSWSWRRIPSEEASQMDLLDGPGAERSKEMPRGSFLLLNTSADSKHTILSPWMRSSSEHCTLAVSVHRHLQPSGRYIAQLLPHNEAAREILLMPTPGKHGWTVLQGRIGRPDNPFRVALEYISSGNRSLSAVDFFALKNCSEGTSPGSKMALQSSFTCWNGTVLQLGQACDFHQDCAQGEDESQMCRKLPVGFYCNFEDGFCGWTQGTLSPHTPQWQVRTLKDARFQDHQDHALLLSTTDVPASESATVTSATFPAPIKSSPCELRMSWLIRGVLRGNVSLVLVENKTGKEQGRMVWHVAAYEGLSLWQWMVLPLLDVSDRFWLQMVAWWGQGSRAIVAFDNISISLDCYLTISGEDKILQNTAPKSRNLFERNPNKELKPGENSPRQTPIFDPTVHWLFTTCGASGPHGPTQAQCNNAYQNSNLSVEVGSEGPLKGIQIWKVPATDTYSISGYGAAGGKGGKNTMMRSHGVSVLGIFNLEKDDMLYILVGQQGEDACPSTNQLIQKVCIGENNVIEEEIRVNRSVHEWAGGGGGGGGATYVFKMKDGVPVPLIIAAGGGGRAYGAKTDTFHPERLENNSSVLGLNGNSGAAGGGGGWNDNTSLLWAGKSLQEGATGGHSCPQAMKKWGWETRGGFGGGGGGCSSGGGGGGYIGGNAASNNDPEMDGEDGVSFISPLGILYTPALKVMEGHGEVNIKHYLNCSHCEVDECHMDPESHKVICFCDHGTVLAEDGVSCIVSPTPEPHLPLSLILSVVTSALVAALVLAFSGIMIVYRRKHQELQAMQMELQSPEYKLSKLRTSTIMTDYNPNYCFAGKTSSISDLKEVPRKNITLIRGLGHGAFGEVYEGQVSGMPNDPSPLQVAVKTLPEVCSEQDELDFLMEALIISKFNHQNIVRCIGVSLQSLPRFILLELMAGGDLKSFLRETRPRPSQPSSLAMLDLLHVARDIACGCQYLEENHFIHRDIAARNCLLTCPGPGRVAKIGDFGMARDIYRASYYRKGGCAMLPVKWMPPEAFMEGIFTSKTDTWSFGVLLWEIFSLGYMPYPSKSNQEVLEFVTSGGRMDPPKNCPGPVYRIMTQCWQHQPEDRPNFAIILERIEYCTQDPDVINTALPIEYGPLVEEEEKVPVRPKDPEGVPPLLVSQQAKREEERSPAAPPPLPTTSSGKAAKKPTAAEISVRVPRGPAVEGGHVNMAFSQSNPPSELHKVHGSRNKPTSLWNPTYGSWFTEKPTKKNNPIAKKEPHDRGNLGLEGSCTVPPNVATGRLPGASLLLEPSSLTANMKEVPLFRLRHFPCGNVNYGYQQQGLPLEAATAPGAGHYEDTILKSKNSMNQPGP
row,Compound,pIC50
1,"O=C(c1ccc(-c2cnc3c(c2)N(Cc2cc(Cl)ccc2C(F)(F)F)CCN3)cc1)N1CCN(C(c2ccccc2)c2ccccc2)CC1 [Example 377, (4-Benzhydrylpiperazin-1-yl)-(4-{1-[5-chloro-2-(trifluoromethyl)benzyl]-1,2,3,4-tetrahydropyrido[2,3-b]pyrazin-7-yl}phenyl)methanone]",5.00 to 6.00
2,"NS(=O)(=O)c1ccc(CCNC(=O)c2ccc(-c3cnc4c(c3)N(Cc3cc(Cl)ccc3C(F)(F)F)CCN4)cc2)cc1 [Example 405, 4-{1-[5-Chloro-2-(trifluoromethyl)benzyl]-1,2,3,4-tetrahydropyrido[2,3-b]pyrazin-7-yl}-N-[2-(4-sulfamoylphenyl)ethyl]benzamide]",6.00 to 7.00
3,"O=C(c1ccc(-c2cnc3c(c2)N(Cc2cc(Cl)ccc2C(F)(F)F)CCN3)cc1)N1CCN(CC2CCCCC2)CC1 [Example 428, (4-{1-[5-Chloro-2-(trifluoromethyl)benzyl]-1,2,3,4-tetrahydropyrido[2,3-b]pyrazin-7-yl}phenyl)-[4-(cyclohexylmethyl)piperazin-1-yl]methanone]",5.00 to 6.00
4,"O=C(NCc1cccc2ccccc12)c1cccc(-c2cnc3c(c2)N(Cc2cc(Cl)ccc2C(F)(F)F)CCN3)c1 [Example 342, 3-{1-[5-Chloro-2-(trifluoromethyl)benzyl]-1,2,3,4-tetrahydropyrido[2,3-b]pyrazin-7-yl}-N-naphthalen-1-ylmethylbenzamide]",6.00 to 7.00
5,"O=C(NCC1CCCO1)c1ccc(-c2cnc3c(c2)N(Cc2cc(Cl)ccc2C(F)(F)F)CCN3)cc1 (stereo not shown) [Example 417, 4-{1-[5-Chloro-2-(trifluoromethyl)benzyl]-1,2,3,4-tetrahydropyrido[2,3-b]pyrazin-7-yl}-N-(tetrahydrofuran-2-ylmethyl)benzamide]",6.00 to 7.00
6,"CS(=O)(=O)c1ccc(CNC(=O)c2cccc(-c3cnc4c(c3)N(Cc3cc(Cl)ccc3C(F)(F)F)CCN4)c2)cc1 [Example 347, 3-{1-[5-Chloro-2-(trifluoromethyl)benzyl]-1,2,3,4-tetrahydropyrido[2,3-b]pyrazin-7-yl}-N-(4-methanesulfonylbenzyl)benzamide]",6.00 to 7.00
7,"CCOC(=O)N1CCC(NC(=O)c2ccc(-c3cnc4c(c3)N(Cc3cc(Cl)ccc3C(F)(F)F)CCN4)cc2)CC1 [Example 389, 4-(4-{1-[5-Chloro-2-(trifluoromethyl)benzyl]-1,2,3,4-tetrahydropyrido[2,3-b]pyrazin-7-yl}benzoylamino)piperidine-1-carboxylic acid ethyl ester]",6.00 to 7.00
8,"O=C(c1cccc(-c2cnc3c(c2)N(Cc2cc(Cl)ccc2C(F)(F)F)CCN3)c1)N1CCN(C(c2ccccc2)c2ccccc2)CC1 [Example 315, (4-Benzhydrylpiperazin-1-yl)-(3-{1-[5-Chloro-2-(trifluoromethyl)benzyl]-1,2,3,4-tetrahydropyrido[2,3-b]pyrazin-7-yl}phenyl)methanone]",5.00 to 6.00
9,"COCCNC(=O)c1ccc(-c2cnc3c(c2)N(Cc2cc(Cl)ccc2C(F)(F)F)CCN3)cc1 [Example 404, 4-{1-[5-Chloro-2-(trifluoromethyl)benzyl]-1,2,3,4-tetrahydropyrido[2,3-b]pyrazin-7-yl}-N-(2-methoxyethyl)benzamide]",> 7.00
10,"O=C(NCCc1cccs1)c1ccc(-c2cnc3c(c2)N(Cc2cc(Cl)ccc2C(F)(F)F)CCN3)cc1 [Example 398, 4-{1-[5-Chloro-2-(trifluoromethyl)benzyl]-1,2,3,4-tetrahydropyrido[2,3-b]pyrazin-7-yl}-N-(2-thiophen-2-yl-ethyl)benzamide]",6.00 to 7.00
11,"CCOC(=O)N1CCC(NC(=O)c2cccc(-c3cnc4c(c3)N(Cc3cc(Cl)ccc3C(F)(F)F)CCN4)c2)CC1 [Example 326, 4-(3-{1-[5-Chloro-2-(trifluoromethyl)benzyl]-1,2,3,4-tetrahydropyrido[2,3-b]pyrazin-7-yl}benzoylamino)piperidine-1-carboxylic acid ethyl ester]",6.00 to 7.00
12,"O=C(c1cccc(-c2cnc3c(c2)N(Cc2cc(Cl)ccc2C(F)(F)F)CCN3)c1)N1CCC(c2ccccc2)CC1 [Example 313, (3-{1-[5-Chloro-2-(trifluoromethyl)benzyl]-1,2,3,4-tetrahydropyrido[2,3-b]pyrazin-7-yl}phenyl)-(4-phenylpiperidin-1-yl)methanone]",6.00 to 7.00
13,"O=C(c1ccc(-c2cnc3c(c2)N(Cc2cc(Cl)ccc2C(F)(F)F)CCN3)cc1)N1CCC(c2c[nH]c3ccccc23)CC1 [Example 376, (4-{1-[5-Chloro-2-(trifluoromethyl)benzyl]-1,2,3,4-tetrahydropyrido[2,3-b]pyrazin-7-yl}phenyl)-[4-(1H-indol-3-yl)piperidin-1-yl]methanone]",6.00 to 7.00
14,"CC(C)NC(=O)CN1CCN(C(=O)c2cccc(-c3cnc4c(c3)N(Cc3cc(Cl)ccc3C(F)(F)F)CCN4)c2)CC1 [Example 336, 2-[4-(3-{1-[5-Chloro-2-(trifluoromethyl)benzyl]-1,2,3,4-tetrahydropyrido[2,3-b]pyrazin-7-yl}benzoyl)piperazin-1-yl]-N-isopropylacetamide]",6.00 to 7.00
15,"O=C(NCCOc1ccccc1)c1ccc(-c2cnc3c(c2)N(Cc2cc(Cl)ccc2C(F)(F)F)CCN3)cc1 [Example 420, 4-{1-[5-Chloro-2-(trifluoromethyl)benzyl]-1,2,3,4-tetrahydropyrido[2,3-b]pyrazin-7-yl}-N-(2-phenoxyethyl)benzamide]",6.00 to 7.00
16,"O=C(NCc1cc(C(F)(F)F)cc(C(F)(F)F)c1)c1cccc(-c2cnc3c(c2)N(Cc2cc(Cl)ccc2C(F)(F)F)CCN3)c1 [Example 332, N-[3,5-Bis(trifluoromethyl)benzyl]-3-{1-[5-chloro-2-(trifluoromethyl)benzyl]-1,2,3,4-tetrahydropyrido[2,3-b]pyrazin-7-yl}benzamide]",6.00 to 7.00
17,"O=C(c1ccc(-c2cnc3c(c2)N(Cc2cc(Cl)ccc2C(F)(F)F)CCN3)cc1)N1CCC2(CC1)C(=O)NCN2c1ccccc1 [Example 380, 8-(4-{1-[5-Chloro-2-(trifluoromethyl)benzyl]-1,2,3,4-tetrahydropyrido[2,3-b]pyrazin-7-yl}benzoyl)-1-phenyl-1,3,8-triaza-spiro[4.5]decan-4-one]",6.00 to 7.00

# Second part, the molecule after the results:
row,pIC50,Compound
1,6.00 to 7.00,"O=C(c1cccc(-c2cnc3c(c2)N(Cc2cc(Cl)ccc2C(F)(F)F)CCN3)c1)N1CCN(c2nccc3occc23)CC1 [Example 324, (3-{1-[5-Chloro-2-(trifluoromethyl)benzyl]-1,2,3,4-tetrahydropyrido[2,3-b]pyrazin-7-yl}phenyl)-(4-furo[3,2-c]pyridin-4-ylpiperazin-1-yl)methanone]"
2,6.00 to 7.00,"COc1ccc(N2CCN(C(=O)c3cccc(-c4cnc5c(c4)N(Cc4cc(Cl)ccc4C(F)(F)F)CCN5)c3)CC2)cc1 [Example 345, (3-{1-[5-Chloro-2-(trifluoromethyl)benzyl]-1,2,3,4-tetrahydropyrido[2,3-b]pyrazin-7-yl}phenyl)-[4-(4-methoxyphenyl)piperazin-1-yl]methanone]"
3,6.00 to 7.00,"O=C(c1ccccc1)N1CCN(C(=O)c2cccc(-c3cnc4c(c3)N(Cc3cc(Cl)ccc3C(F)(F)F)CCN4)c2)CC1 [Example 323, (4-Benzoylpiperazin-1-yl)-(3-{1-[5-Chloro-2-(trifluoromethyl)benzyl]-1,2,3,4-tetrahydropyrido[2,3-b]pyrazin-7-yl}phenyl)methanone]"
4,6.00 to 7.00,"O=C(c1cccc(-c2cnc3c(c2)N(Cc2cc(Cl)ccc2C(F)(F)F)CCN3)c1)N1CCN(CCc2ccccn2)CC1 [Example 330, (3-{1-[5-Chloro-2-(trifluoromethyl)benzyl]-1,2,3,4-tetrahydropyrido[2,3-b]pyrazin-7-yl}phenyl)-[4-(2-pyridin-2-yl-ethyl)piperazin-1-yl]methanone]"
5,6.00 to 7.00,"O=C(c1cccc(-c2cnc3c(c2)N(Cc2cc(Cl)ccc2C(F)(F)F)CCN3)c1)N1CCN(c2ccccc2)CC1 [Example 306, (3-{1-[5-Chloro-2-(trifluoromethyl)benzyl]-1,2,3,4-tetrahydropyrido[2,3-b]pyrazin-7-yl}phenyl)-(4-phenylpiperazin-1-yl)methanone]"
6,6.00 to 7.00,"COc1ccc(CN2CCN(C(=O)c3cccc(-c4cnc5c(c4)N(Cc4cc(Cl)ccc4C(F)(F)F)CCN5)c3)CC2)cc1 [Example 322, (3-{1-[5-Chloro-2-(trifluoromethyl)benzyl]-1,2,3,4-tetrahydropyrido[2,3-b]pyrazin-7-yl}phenyl)-[4-(4-methoxybenzyl)piperazin-1-yl]methanone]"
7,6.00 to 7.00,"O=C(c1cccc(-c2cnc3c(c2)N(Cc2cc(Cl)ccc2C(F)(F)F)CCN3)c1)N1CCN(c2ccc(Cl)cc2)CC1 [Example 308, [4-(4-Chlorophenyl)-piperazin-1-yl]-(3-{1-[5-Chloro-2-(trifluoromethyl)benzyl]-1,2,3,4-tetrahydropyrido[2,3-b]pyrazin-7-yl}phenyl)methanone]"
8,> 7.00,"O=C(c1ccc(-c2cnc3c(c2)N(Cc2cc(Cl)ccc2C(F)(F)F)CCN3)cc1)N1CCN(c2cnccn2)CC1 [Example 406, (4-{1-[5-Chloro-2-(trifluoromethyl)benzyl]-1,2,3,4-tetrahydropyrido[2,3-b]pyrazin-7-yl}phenyl)-(2,3,5,6-tetrahydro[1,2′]bipyrazinyl-4-yl)methanone]"
